Measured values published in patent US20230015823A1, “METHODS OF ADMINISTERING VOXELOTOR” (Global Blood Therapeutics, Inc., priority 2019, published 2023).

Assays:
CYP2C8 = CYP2C8 (Homo sapiens, UniProt P10632)
[1] = Excretion after administration of radiolabeled voxelotor; type: in vivo
Description: Following the administration of radiolabeled voxelotor, approximately 62.6% of the dose and its metabolites are excreted into feces (33.3% unchanged) and 35.5% in urine (0.08% unchanged).

Protein binding in vitro = type: in vitro ADME
Description: Voxelotor apparent volume of distribution of the central compartment and peripheral compartment are 338 L and 72.2 L in plasma, respectively. Protein binding is 99.8% in vitro. The blood-to-plasma ratio is approximately 15:1 in patients with SCD.

[2] = system: sickle cell disease (SCD) patients; test: HOPE trial: efficacy in sickle cell disease; type: in vivo, human
Experimental: The efficacy and safety of OXBRYTA in sickle cell disease (SCD) was evaluated in HOPE, a randomized, double-blind, placebo-controlled, multicenter trial [NCT 03036813]. In this study, 274 patients were randomized to daily oral administration of OXBRYTA 1,500 mg (N=90), OXBRYTA 900 mg (N=92), or placebo (N=92). Patients were included if they had from 1 to 10 vasoocclusive crisis (VOC) events within 12 months prior to enrollment and baseline hemoglobin (Hb) ≥5.5 to ≤10.5 g/dL. Eligible patients on stable doses of hydroxyurea for at least 90 days were allowed to continue hydroxyurea therapy throughout the study. Randomization was stratified by patients already receiving hydroxyurea (yes, no), geographic region (North America, Europe, Other), and age (12 to <17 years, 18 to 65 years). The trial excluded patients who received red blood cell (RBC) transfusions within 60 days and erythropoietin within 28 days of enrollment, had renal insufficiency, uncontrolled liver disease, were pregnant, or lactating.
The majority of patients had HbSS or HbS/beta^0-thalassemia genotype (90%) and were receiving background hydroxyurea therapy (65%). The median age was 24 years (range: 12 to 64 years); 46 (17%) patients were 12 to <17 years of age. Median baseline Hb was 8.5 g/dL (5.9 to 10.8 g/dL). One hundred and fifteen (42%) had 1 VOC event and 159 (58%) had 2 to 10 events within 12 months prior to enrollment.
Efficacy was based on Hb response rate defined as a Hb increase of >1 g/dL from baseline to Week 24 in patients treated with OXBRYTA 1,500 mg versus placebo. […] No outlier subgroups were observed. The distribution of Hb change from baseline for individual patients completing 24 weeks of treatment with OXBRYTA 1,500 mg or placebo is depicted in FIG. 8.
Additional efficacy evaluation included change in Hb and percent change in indirect bilirubin and percent reticulocyte count from baseline to Week 24 (Table 4).

[3] = system: bacterial reverse mutation; test: Reverse mutation bacterial (Ames) test; type: cell-based
Description: (§1) Voxelotor was not genotoxic in the reverse mutation bacterial (Ames) test, rat Comet assay, or rat micronucleus assay.

[4] = PK in specific populations (age, sex, body weight, pediatric, renal impairment); type: in vivo, human
Experimental: The pharmacokinetic parameters of voxelotor were similar in pediatric patients 12 to <17 years and adults.
Following a single 900 mg dose of voxelotor, whole blood exposures in subjects with severe renal impairment (eGFR<30 mL/min/1.73 m^2) were 25% lower compared to healthy controls.
OXBRYTA has not been evaluated in patients with end stage renal disease requiring dialysis.

RasH2 transgenic mice = test: 26-week carcinogenicity study; type: in vivo, mouse; conditions: 26-week study; oral doses of 30, 150, or 500 mg/kg/day
P-gp = P-gp (Homo sapiens, UniProt P08183); test: Effect of voxelotor on P-gp: concomitant digoxin; type: in vivo; conditions: concomitant use
pregnant rats = test: Pre- and postnatal development study in pregnant rats; type: in vivo, rat
Experimental: In a pre- and postnatal development study, voxelotor was administered orally to pregnant rats at 15, 50 and 250 mg/kg/day (gestation day 6 through lactation day 20). Maternal gestational body weights were decreased at 250 mg/kg/day, which continued to the end of lactation.

[5] = Voxelotor in milk of lactating rats; type: in vivo, rat
Description: There are no data on the presence of voxelotor in human milk, the effects on the breastfed child, or the effects on milk production. […] Plasma concentrations of voxelotor in pregnant rats were higher than the concentration in milk. When a drug is present in animal milk, it is likely that the drug will be present in human milk. […] Because of the potential for serious adverse reactions in the breastfed child, including changes in the hematopoietic system, advise patients that breastfeeding is not recommended during treatment with OXBRYTA, and for at least 2 weeks after the last dose.

[6] = PK in patients with HbSC genotype vs HbSS genotype; conditions: human, in vivo
OCT2 = OCT2 (Homo sapiens, UniProt O15244); test: In vitro transporter studies: OCT2; type: in vitro ADME
rat = test: Rat micronucleus assay; type: in vivo
Description: as §1

CYP2D6 = CYP2D6 (Homo sapiens, UniProt P10635)
MATE2-K = MATE2-K (Homo sapiens, UniProt Q86VL8); test: In vitro transporter studies: MATE2-K; type: in vitro ADME
Chain of MATE2-K (Q86VL8 1-566 isoform Q86VL8-3): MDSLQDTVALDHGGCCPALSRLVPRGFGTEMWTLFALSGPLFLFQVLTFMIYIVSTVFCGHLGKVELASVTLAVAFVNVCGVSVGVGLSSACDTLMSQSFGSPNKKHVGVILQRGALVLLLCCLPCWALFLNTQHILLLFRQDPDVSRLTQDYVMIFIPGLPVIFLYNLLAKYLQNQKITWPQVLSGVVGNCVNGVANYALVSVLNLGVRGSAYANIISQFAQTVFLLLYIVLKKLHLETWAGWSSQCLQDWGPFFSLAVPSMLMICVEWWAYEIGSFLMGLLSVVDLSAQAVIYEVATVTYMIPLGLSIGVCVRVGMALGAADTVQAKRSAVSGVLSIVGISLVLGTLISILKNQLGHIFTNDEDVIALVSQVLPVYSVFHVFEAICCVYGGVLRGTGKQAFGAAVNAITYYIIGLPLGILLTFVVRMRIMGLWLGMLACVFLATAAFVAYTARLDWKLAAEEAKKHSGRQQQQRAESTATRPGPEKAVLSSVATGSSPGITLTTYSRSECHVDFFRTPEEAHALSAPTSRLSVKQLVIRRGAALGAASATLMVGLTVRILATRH

Chain of CYP2D6 (P10635 whole entry): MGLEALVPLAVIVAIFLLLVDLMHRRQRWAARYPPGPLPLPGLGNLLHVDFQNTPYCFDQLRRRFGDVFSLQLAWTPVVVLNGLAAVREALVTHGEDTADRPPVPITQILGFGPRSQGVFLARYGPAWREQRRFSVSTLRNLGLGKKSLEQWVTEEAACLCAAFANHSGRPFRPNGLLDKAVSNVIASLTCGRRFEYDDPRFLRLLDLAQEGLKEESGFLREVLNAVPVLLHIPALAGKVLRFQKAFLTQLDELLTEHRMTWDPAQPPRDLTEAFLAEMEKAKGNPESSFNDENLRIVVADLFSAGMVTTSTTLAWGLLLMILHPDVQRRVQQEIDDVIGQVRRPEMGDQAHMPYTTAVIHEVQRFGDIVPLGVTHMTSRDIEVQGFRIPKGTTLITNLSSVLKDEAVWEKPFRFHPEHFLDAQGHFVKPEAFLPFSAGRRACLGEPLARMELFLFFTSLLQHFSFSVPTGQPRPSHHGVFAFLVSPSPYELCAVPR
Chain of OCT2 (O15244 whole entry): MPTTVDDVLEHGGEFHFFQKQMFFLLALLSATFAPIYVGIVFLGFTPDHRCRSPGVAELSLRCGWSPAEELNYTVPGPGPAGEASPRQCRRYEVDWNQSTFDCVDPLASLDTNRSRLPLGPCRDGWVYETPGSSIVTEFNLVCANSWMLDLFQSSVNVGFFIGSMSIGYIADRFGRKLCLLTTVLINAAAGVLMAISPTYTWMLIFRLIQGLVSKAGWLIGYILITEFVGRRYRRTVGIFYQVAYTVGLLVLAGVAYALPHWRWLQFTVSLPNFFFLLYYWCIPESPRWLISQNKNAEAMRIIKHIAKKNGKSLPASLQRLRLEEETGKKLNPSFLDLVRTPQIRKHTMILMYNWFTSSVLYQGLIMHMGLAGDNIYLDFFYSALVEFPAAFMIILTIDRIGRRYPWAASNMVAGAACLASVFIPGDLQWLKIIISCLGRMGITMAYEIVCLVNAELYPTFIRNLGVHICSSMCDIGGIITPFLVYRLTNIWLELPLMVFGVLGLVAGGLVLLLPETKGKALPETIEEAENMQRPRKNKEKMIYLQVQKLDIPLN
Chain of P-gp (P08183 whole entry): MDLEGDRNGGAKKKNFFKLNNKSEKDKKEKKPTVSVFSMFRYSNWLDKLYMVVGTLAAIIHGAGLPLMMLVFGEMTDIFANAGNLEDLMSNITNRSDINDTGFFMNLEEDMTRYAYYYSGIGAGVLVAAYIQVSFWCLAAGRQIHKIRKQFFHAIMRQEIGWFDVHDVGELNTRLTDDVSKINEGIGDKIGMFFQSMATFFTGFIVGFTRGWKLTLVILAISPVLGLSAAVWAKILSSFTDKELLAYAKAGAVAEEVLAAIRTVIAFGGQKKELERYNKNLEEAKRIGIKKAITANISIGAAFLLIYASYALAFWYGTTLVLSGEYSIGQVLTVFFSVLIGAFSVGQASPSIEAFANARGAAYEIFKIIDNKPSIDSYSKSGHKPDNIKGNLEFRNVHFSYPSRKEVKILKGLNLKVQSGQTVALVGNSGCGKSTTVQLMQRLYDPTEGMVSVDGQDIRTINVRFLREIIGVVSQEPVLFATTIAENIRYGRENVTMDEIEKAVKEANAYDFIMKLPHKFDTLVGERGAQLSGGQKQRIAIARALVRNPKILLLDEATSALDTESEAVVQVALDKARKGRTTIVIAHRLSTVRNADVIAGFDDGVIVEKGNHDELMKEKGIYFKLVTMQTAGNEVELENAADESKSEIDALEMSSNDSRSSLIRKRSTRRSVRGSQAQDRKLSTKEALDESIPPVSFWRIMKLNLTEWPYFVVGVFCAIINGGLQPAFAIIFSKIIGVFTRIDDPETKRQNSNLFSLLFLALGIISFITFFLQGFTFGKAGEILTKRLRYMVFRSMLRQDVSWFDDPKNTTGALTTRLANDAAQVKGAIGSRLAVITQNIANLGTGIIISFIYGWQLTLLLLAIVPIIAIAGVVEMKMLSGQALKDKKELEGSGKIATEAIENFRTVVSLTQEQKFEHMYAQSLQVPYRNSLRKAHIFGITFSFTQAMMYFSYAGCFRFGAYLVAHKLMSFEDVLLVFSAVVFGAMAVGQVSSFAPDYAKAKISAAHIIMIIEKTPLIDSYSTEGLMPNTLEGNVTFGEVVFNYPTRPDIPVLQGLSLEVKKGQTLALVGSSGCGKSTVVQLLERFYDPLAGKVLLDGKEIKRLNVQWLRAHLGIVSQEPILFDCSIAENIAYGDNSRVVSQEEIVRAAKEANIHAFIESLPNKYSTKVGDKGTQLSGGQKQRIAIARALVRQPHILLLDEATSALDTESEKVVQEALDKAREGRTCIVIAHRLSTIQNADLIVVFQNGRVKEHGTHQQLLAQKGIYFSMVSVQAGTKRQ
Chain of CYP2C8 (P10632 whole entry): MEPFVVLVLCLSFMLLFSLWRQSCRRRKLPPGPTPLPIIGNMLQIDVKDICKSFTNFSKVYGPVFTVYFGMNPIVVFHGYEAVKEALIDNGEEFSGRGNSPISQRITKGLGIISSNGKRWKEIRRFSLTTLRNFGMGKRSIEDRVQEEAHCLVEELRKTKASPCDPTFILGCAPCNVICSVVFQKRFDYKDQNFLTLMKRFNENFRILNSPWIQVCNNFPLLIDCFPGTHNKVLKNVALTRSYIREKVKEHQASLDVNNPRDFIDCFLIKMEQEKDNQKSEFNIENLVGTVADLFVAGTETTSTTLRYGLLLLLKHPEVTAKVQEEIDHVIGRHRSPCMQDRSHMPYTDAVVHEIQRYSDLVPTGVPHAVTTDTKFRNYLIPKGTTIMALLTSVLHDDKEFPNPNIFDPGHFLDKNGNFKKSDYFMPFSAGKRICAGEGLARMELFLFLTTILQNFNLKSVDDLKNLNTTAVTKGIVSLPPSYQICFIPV

## CC(C)n1nccc1-c1ncccc1COc1cccc(O)c1C=O [voxelotor, 2-hydroxy-6-((2-(1-isopropyl-1H-pyrazol-5-yl)pyridin-3-yl)methoxy)benzaldehyde]
CYP2C8
  inhibition of CYP2C8 in vivo: not
[1]
  dose and its metabolites excreted in urine: 35.5%
  dose and its metabolites excreted into feces: approximately 62.6%
  dose excreted unchanged in urine: 0.08%
  dose excreted unchanged into feces: 33.3%
Protein binding in vitro
  fraction unbound: 0.002
[2]; 1,500 mg QD (N = 90)
  Hemoglobin, adjusted mean change from baseline to Week 24: 1.14 g/dL
  Indirect Bilirubin, adjusted mean percent change from baseline to Week 24: −29.08%
  Percent Reticulocyte Count, adjusted mean percent change from baseline to Week 24: −19.93%
[2]; 1,500 mg daily oral, 46/90, placebo 6.5%
  Hb response rate (Hb increase of >1 g/dL from baseline to Week 24): 51.1%
[3]
  genotoxicity: not genotoxic
[4]; in vivo
  differences in pharmacokinetics based on age (12 to 59 years), sex, body weight (28 to 135 kg), or mild to severe renal impairment (CLcr 15-89 mL/min): No clinically significant differences
  effect of renal function on the excretion of voxelotor: no clinically significant effect
  pharmacokinetic parameters in pediatric patients 12 to <17 years vs adults: similar
[4]; severe renal impairment (eGFR<30 mL/min/1.73 m^2), single 900 mg dose
  whole blood exposures lower compared to healthy controls: 25%
[4]; severe renal impairment, single 900 mg dose
  unbound plasma concentrations vs healthy controls: comparable
RasH2 transgenic mice
  carcinogenicity: not carcinogenic
P-gp
  effect on digoxin (a P-gp substrate): did not alter digoxin to a clinically relevant extent
Pregnant rats; maternal dose 250 mg/kg/day, throughout lactation, weaning and maturation
  findings in offspring: reduced survival and reduced body weights
Pregnant rats; pregnant rats, 250 mg/kg/day oral, gestation day 6 through lactation day 20
  maternal gestational body weights: decreased
Pregnant rats; rats, maternal dose 250 mg/kg/day
  exposure at 250 mg/kg/day relative to exposure in patients at the recommended dose: approximately 2.8 times
[5]
  presence in milk: detected in milk
[6]
  steady state plasma AUC higher in HbSC vs HbSS genotype patients: 23%
  steady state plasma Cmax higher in HbSC vs HbSS genotype patients: 15%
  steady state whole blood AUC higher in HbSC (n=11) vs HbSS (n=220) genotype patients: 50%
  steady state whole blood Cmax higher in HbSC vs HbSS genotype patients: 45%
OCT2
  inhibition of OCT2: not an inhibitor
rat
  genotoxicity: not genotoxic
CYP2D6
  inhibition of CYP2D6 in vivo: not
MATE2-K
  inhibition of MATE2-K: not an inhibitor
